Source: ChEMBL document CHEMBL5634133, “Indirubin derivatives as bifunctional molecules inducing DNA damage and targeting PARP for the treatment of cancer” (Eur J Med Chem, 2023)
Calls of active or inactive are those of the source. The calls are words filed in the database; no cut-off is given here.

Assays:
HCT-116 [1] = experiment: Antitumor activity against human HCT-116 cells xenografted in BALB/c nude mouse assessed as suppression of tumor growth at 10 mg/kg, ip administered for 14 days relative to control; type: functional, organism-based; conditions: time 14.0 day
HCT-116 [2] = experiment: Induction of apoptosis in human HCT-116 cells assessed as necrotic cells at 0.5 uM incubated for 48 hrs by Annexin V-PE/7-AAD staining based flow cytometry analysis (reference value: 0 %); type: functional
HCT-116 [3] = experiment: Induction of apoptosis in human HCT-116 cells assessed as late apoptotic cells at 0.5 uM incubated for 48 hrs by Annexin V-PE/7-AAD staining based flow cytometry analysis (reference value: 0.39 %); type: functional
A549 = experiment: Antiproliferative activity against human A549 cells assessed as inhibition of cell viability incubated for 72 hrs by CCK8 assay; type: functional, cell-based; conditions: A549, 72 h
HCT-116 [4] = experiment: Induction of apoptosis in human HCT-116 cells assessed as viable cells at 0.25 uM incubated for 48 hrs by Annexin V-PE/7-AAD staining based flow cytometry analysis (reference value: 92.8 %); type: functional; conditions: read-out: Activity
[5] = AUC(0 to t) in BALB/c mouse at 20 mg/kg, po and measured after 24 hrs by LC-MS/MS analysis; type: ADME, organism-based; conditions: in vivo
HCT-116 [6] = experiment: Induction of DNA damage in human HCT-116 cells assessed as increase in gammaH2AX phosphorylation level incubated for 48 hrs by Western blotting analysis; type: functional, cell-based; conditions: dose 0.25-1 µM
HCT-116 [7] = experiment: Induction of apoptosis in human HCT-116 cells assessed as increase in Cleaved-PARP protein expression level by Western blotting analysis; type: functional, cell-based; conditions: dose 0.25-1 µM
[8] = Toxicity in BALB/c nude mouse xenografted with human HCT-116 cells assessed as change in body weight at 20 mg/kg, ip administered for 14 days; type: organism-based; conditions: in vivo, 336 h, time 14 day
HCT-116 [9] = experiment: Induction of apoptosis in human HCT-116 cells assessed as increase in accumulation of cells at S phase at 0.25 to 1 uM incubated for 48 hrs by propidium iodide staining based flow cytometry analysis (reference value: 24.67%); type: functional; conditions: dose 0.25-1 µM
HCT-116 [10] = experiment: Induction of apoptosis in human HCT-116 cells assessed as necrotic cells at 1 uM incubated for 48 hrs by Annexin V-PE/7-AAD staining based flow cytometry analysis (reference value: 0 %); type: functional
HCT-116 [11] = experiment: Induction of apoptosis in human HCT-116 cells assessed as decrease in Bcl-2 protein expression level by Western blotting analysis; type: functional, cell-based; conditions: dose 0.25-1 µM
HCT-116 [12] = experiment: Induction of apoptosis in human HCT-116 cells assessed as late apoptotic cells at 0.25 uM incubated for 48 hrs by Annexin V-PE/7-AAD staining based flow cytometry analysis (reference value: 0.39 %); type: functional
[13] = Cmax in BALB/c mouse at 20 mg/kg, po and measured after 24 hrs by LC-MS/MS analysis; type: ADME, organism-based; conditions: in vivo
HCT-116 [14] = experiment: Induction of apoptosis in human HCT-116 cells assessed as viable cells at 1 uM incubated for 48 hrs by Annexin V-PE/7-AAD staining based flow cytometry analysis (reference value: 92.8 %); type: functional; conditions: read-out: Activity
MCF7 = experiment: Antiproliferative activity against human MCF7 cells assessed as inhibition of cell viability incubated for 72 hrs by CCK8 assay; type: functional, cell-based; conditions: MCF7, 72 h
HCT-116 [15] = experiment: Induction of DNA damage in human HCT-116 cells assessed as increase in gammaH2AX phosphorylation level incubated for 48 hrs by DAPI staining based immunofluorescence analysis; type: functional, cell-based; conditions: dose 0.25-1 µM
HCT-116 [16] = experiment: Induction of apoptosis in human HCT-116 cells assessed as decrease in Caspase-3 protein expression level by Western blotting analysis; type: functional, cell-based; conditions: dose 0.25-1 µM
HCT-116 [17] = experiment: Antitumor activity against human HCT-116 cells xenografted in BALB/c nude mouse assessed as reduction in tumor weight at 10 mg/kg, ip administered for 14 days relative to control; type: functional, organism-based; conditions: time 14.0 day
HCT-116 [18] = experiment: Induction of apoptosis in human HCT-116 cells assessed as early apoptotic cells at 0.25 uM incubated for 48 hrs by Annexin V-PE/7-AAD staining based flow cytometry analysis (reference value: 6.78 %); type: functional
MV4-11 = experiment: Antiproliferative activity against human MV4-11 cells assessed as inhibition of cell viability incubated for 72 hrs by CCK8 assay; type: functional, cell-based; conditions: MV4-11, 72 h
HCT-116 [19] = experiment: Antitumor activity against human HCT-116 cells xenografted in BALB/c nude mouse assessed as tumor growth inhibition at 20 mg/kg, ip administered for 14 days relative to control; type: functional; conditions: Mus musculus, HCT-116, 336 h, time 14 day, read-out: TGI
[20] = Clearance in BALB/c mouse at 20 mg/kg, po and measured after 24 hrs by LC-MS/MS analysis; type: ADME, organism-based; conditions: in vivo
HCT-116 [21] = experiment: Induction of apoptosis in human HCT-116 cells assessed as viable cells at 0.5 uM incubated for 48 hrs by Annexin V-PE/7-AAD staining based flow cytometry analysis (reference value: 92.8 %); type: functional; conditions: read-out: Activity
HCT-116 [22] = experiment: Induction of apoptosis in human HCT-116 cells assessed as necrotic cells at 0.25 uM incubated for 48 hrs by Annexin V-PE/7-AAD staining based flow cytometry analysis (reference value: 0 %); type: functional
HCT-116 [23] = experiment: Induction of apoptosis in human HCT-116 cells assessed as late apoptotic cells at 1 uM incubated for 48 hrs by Annexin V-PE/7-AAD staining based flow cytometry analysis (reference value: 0.39 %); type: functional
HCT-116 [24] = experiment: Antiproliferative activity against human HCT-116 cells transfected with PARP1 siRNA assessed as inhibition of cell viability at 0.5 uM incubated for 72 hrs by CCK8 assay; type: functional, cell-based
HCT-116 [25] = experiment: Induction of apoptosis in human HCT-116 cells assessed as early apoptotic cells at 0.5 uM incubated for 48 hrs by Annexin V-PE/7-AAD staining based flow cytometry analysis (reference value: 6.78 %); type: functional
[26] = molecular target: T1, Poly [ADP-ribose] polymerase 1 (Homo sapiens, UniProt P09874); experiment: Inhibition of PARP1 (unknown origin) incubated for 10 mins by chemiluminescence assay
HCT-116 [27] = experiment: Induction of apoptosis in human HCT-116 cells assessed as early apoptotic cells at 1 uM incubated for 48 hrs by Annexin V-PE/7-AAD staining based flow cytometry analysis (reference value: 6.78 %); type: functional
[28] = Toxicity in BALB/c nude mouse xenografted with human HCT-116 cells assessed as tissue morphology at 20 mg/kg, ip administered for 14 days by hematoxylin and eosin staining based assay; type: organism-based; conditions: in vivo, 336 h, time 14 day
[29] = molecular target: T1, Poly [ADP-ribose] polymerase 1; conditions: dose 10.0 nM, time 10.0 min
HCT-116 [30] = experiment: Antitumor activity against human HCT-116 cells xenografted in BALB/c nude mouse assessed as tumor growth inhibition at 10 mg/kg, ip administered for 14 days relative to control; type: functional; conditions: HCT-116, 336 h, time 14 day, read-out: TGI
HCT-116 [31] = experiment: […] in human HCT-116 cells assessed as decrease in accumulation of cells at G2/M phase at 0.25 to 1 uM incubated for 48 hrs by propidium iodide staining based flow cytometry analysis (Rvb =34.99%); type: functional; parameters: scale not given: the % may be the effect or the level left; conditions: dose 0.25-1 µM
HCT-116 [32] = experiment: Induction of apoptosis in human HCT-116 cells assessed as increase in Cleaved-Caspase-3 protein expression level by Western blotting analysis; type: functional, cell-based; conditions: dose 0.25-1 µM
HCT-116 [33] = experiment: Antiproliferative activity against human HCT-116 cells assessed as decrease in number of EdU-positive cells at 0.25 to 1 uM incubated for 48 hrs in presence of EdU labeling agent by Hoechst staining based confocal microscopy; type: functional, cell-based; conditions: dose 0.25-1 µM
[34] = AUC(0 to infinity) in BALB/c mouse at 20 mg/kg, po and measured after 24 hrs by LC-MS/MS analysis; type: ADME, organism-based; conditions: in vivo
HCT-116 [35] = experiment: Induction of apoptosis in human HCT-116 cells assessed as increase in Bax protein expression level by Western blotting analysis; type: functional, cell-based; conditions: dose 0.25-1 µM
NCM460 = experiment: Antiproliferative activity against human NCM460 cells assessed as inhibition of cell viability incubated for 72 hrs by CCK8 assay; type: functional, cell-based; conditions: NCM460, 72 h
[36] = molecular target: T1, Poly [ADP-ribose] polymerase 1; experiment: Inhibition of PARP1 in human HCT-116 cells assessed as inhibition of PARP-induced PARylation incubated for 48 hrs by Western blotting analysis; type: cell-based; conditions: dose 0.25-1 µM
[37] = Half life in BALB/c mouse at 20 mg/kg, po and measured after 24 hrs by LC-MS/MS analysis; type: ADME, organism-based; conditions: in vivo
HCT-116 [38] = experiment: Antiproliferative activity against human HCT-116 cells assessed as inhibition of colony formation incubated for 48 hrs medium replaced with every 14 days by crystal violet staining based optical microscope; type: functional, cell-based; conditions: time 14.0 day
HCT-116 [39] = experiment: Antiproliferative activity against human HCT-116 cells assessed as inhibition of cell viability incubated for 72 hrs by CCK8 assay; type: functional, cell-based; conditions: HCT-116, 72 h

T1 sequence (P09874 whole entry): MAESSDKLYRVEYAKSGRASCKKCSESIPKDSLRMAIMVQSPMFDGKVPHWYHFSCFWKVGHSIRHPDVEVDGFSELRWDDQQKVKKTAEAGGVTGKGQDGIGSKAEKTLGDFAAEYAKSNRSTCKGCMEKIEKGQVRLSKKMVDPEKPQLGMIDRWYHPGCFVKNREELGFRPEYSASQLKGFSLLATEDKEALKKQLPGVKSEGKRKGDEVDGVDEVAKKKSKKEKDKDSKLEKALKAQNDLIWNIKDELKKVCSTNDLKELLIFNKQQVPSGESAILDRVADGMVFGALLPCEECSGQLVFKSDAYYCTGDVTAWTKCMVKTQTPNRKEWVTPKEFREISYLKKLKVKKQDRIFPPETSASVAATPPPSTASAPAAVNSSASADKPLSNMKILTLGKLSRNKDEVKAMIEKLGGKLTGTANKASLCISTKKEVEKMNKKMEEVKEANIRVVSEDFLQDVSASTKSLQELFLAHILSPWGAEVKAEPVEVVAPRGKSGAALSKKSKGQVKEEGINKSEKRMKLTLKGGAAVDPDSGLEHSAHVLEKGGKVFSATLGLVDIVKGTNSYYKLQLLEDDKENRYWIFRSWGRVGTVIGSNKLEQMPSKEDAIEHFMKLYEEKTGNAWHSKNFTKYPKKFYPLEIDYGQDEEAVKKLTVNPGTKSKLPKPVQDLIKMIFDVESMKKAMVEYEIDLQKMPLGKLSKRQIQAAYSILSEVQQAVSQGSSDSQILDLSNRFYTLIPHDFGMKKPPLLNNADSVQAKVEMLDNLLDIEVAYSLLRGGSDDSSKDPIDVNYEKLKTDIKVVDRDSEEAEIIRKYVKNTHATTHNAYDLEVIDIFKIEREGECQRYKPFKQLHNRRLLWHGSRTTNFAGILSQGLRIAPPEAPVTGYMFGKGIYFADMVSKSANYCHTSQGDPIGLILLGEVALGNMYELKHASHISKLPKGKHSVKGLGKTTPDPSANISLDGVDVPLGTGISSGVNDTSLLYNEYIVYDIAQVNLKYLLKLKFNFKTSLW

- IC50 (A549): 3.26 µM
- AUCt [5]: 5900 ng·h/mL
- Cmax [13]: 6040 ng/mL
- IC50 (MCF7): 1600 nM
- IC50 (MV4-11): 520 nM
- CL [20]: 51.65 mL/min/kg
- IC50 [26]: 1.89 nM
- inhibition [29]: 64.8%
- AUC [34]: 6450 ng·h/mL
- inhibition [36]: Dose-Dependent Effect
- half-life [37]: 349 min
- IC50 (HCT-116 [39]): 310 nM
SMILES: O=C1Nc2ccccc2/C1=C1/Nc2ccccc2/C1=N\OCCCC(=O)N1CCN(C(=O)c2ccc(Cc3n[nH]c(=O)c4ccccc34)cc2F)CC1
- Activity (HCT-116 [1]): Active
- Activity (HCT-116 [2]): 0.11%
- Activity (HCT-116 [3]): 1.05%
- viability at 0.25 µM (HCT-116 [4]): 89.3%
- Activity (HCT-116 [6]): Dose-Dependent Effect
- Activity (HCT-116 [7]): Dose-Dependent Effect
- Activity [8]: Non-Toxic
- Activity (HCT-116 [9]): 41.03%
- Activity (HCT-116 [10]): 0.28%
- Activity (HCT-116 [11]): Dose-Dependent Effect
- Activity (HCT-116 [12]): 1.76%
- viability at 1 µM (HCT-116 [14]): 69.4%
- Activity (HCT-116 [15]): Dose-Dependent Effect
- Activity (HCT-116 [16]): Dose-Dependent Effect
- Activity (HCT-116 [17]): Active
- Activity (HCT-116 [18]): 8.64%
- inhibition in vivo at 20 mg/kg (HCT-116 [19]): 86.6%
- viability at 0.5 µM (HCT-116 [21]): 83.7%
- Activity (HCT-116 [22]): 0.12%
- Activity (HCT-116 [23]): 7.01%
- Activity (HCT-116 [24]): inactive
- Activity (HCT-116 [25]): 14.6%
- Activity (HCT-116 [27]): 22.7%
- Activity [28]: Non-Toxic
- inhibition in vivo at 10 mg/kg (HCT-116 [30]): 75.9%
- Activity (HCT-116 [31]): 10.5%
- Activity (HCT-116 [32]): Dose-Dependent Effect
- Activity (HCT-116 [33]): Active
- Activity (HCT-116 [35]): Dose-Dependent Effect
- IC50 (NCM460): > 60 µM
- Activity (HCT-116 [38]): Dose-Dependent Effect
